ChEMBL document CHEMBL3882242, “Synthesis and biological evaluation of analogs of the antimitotic marine natural product curacin A” (2002)
Activity calls are given as the source filed them. The calls are words filed in the database; no cut-off is given here.

How the values were obtained:
[1] = biological target: T1, Tubulin (Bos taurus) (UniProt Q6B856+Q862L2+Q862F3); assay: Inhibition of [3H]colchicin binding to bovine brain tubulin incubated at 5 uM and 30 degreeC for 10 mins in presence of GTP by scintillation spectroscopic method
[2] = Growth inhibition of human PC3 cells incubated for 48 hrs by MTS assay; type: functional; conditions: PC-3, 48 h
[3] = Growth inhibition of human PC3 cells incubated for 96 hrs by MTS assay; type: functional; conditions: PC-3, 96 h
[4] = Growth inhibition of human MDA-MB-231 cells incubated for 48 hrs by MTS assay; type: functional; conditions: MDA-MB-231, 48 h
[5] = Growth inhibition of human MDA-MB-231 cells incubated for 96 hrs by MTS assay; type: functional; conditions: MDA-MB-231, 96 h
[6] = biological target: T1, Tubulin (Bos taurus); assay: Inhibition of GTP/glutamate-induced bovine brain tubulin polymerization at 5 uM by […]
[7] = biological target: T1, Tubulin (Bos taurus); assay: Inhibition of [3H]colchicin binding to bovine brain tubulin incubated at 50 uM and 30 degreeC for 10 mins in presence of GTP by scintillation spectroscopic method
[8] = Growth inhibition of human 2008 cells incubated for 48 hrs by MTS assay; type: functional; conditions: Homo sapiens, 2008, 48 h
[9] = Growth inhibition of human 2008 cells incubated for 96 hrs by MTS assay; type: functional; conditions: Homo sapiens, 2008, 96 h
[10] = biological target: T1, Tubulin (Bos taurus); assay: Inhibition of [3H]colchicine binding to bovine brain tubulin at 50 uM relative to control
[11] = biological target: T1, Tubulin (Bos taurus); assay: Inhibition of [3H]colchicine binding to bovine brain tubulin at 5 uM relative to control
[12] = test system: MCF7; assay: Antimitotic activity in human MCF7 cells assessed as increase in mitotic index at 7.8 to 1000 nM measured after 14 to 16 hrs by immunohistochemical analysis; type: functional, cell-based
[13] = test system: MCF7; assay: Antimitotic activity in human MCF7 cells assessed as chromatin condensation at 7.8 to 1000 nM measured after 14 to 16 hrs by immunohistochemical analysis; type: functional, cell-based
[14] = test system: MCF7; assay: Antimitotic activity in human MCF7 cells assessed as induction of cell rounding at 7.8 to 1000 nM measured after 14 to 16 hrs by immunohistochemical analysis; type: functional, cell-based
[15] = test system: MCF7; assay: Antimitotic activity in human MCF7 cells assessed as disruption of microtubules at 7.8 to 1000 nM measured after 14 to 16 hrs by immunohistochemical analysis; type: functional, cell-based
[16] = test system: MCF7; assay: Antimitotic activity in human MCF7 cells assessed as increase in core histone phosphorylation at 7.8 to 1000 nM measured after 14 to 16 hrs by immunohistochemical analysis; type: functional, cell-based

| SMILES | inhibition [1] [%] | GI50 [2] [nM] | GI50 [3] [nM] | GI50 [4] [nM] | GI50 [5] [nM] | inhibition [6] [%] | inhibition [7] [%] | GI50 [8] [nM] | GI50 [9] [nM] | inhibition [10] [%] | inhibition [11] [%] | also measured |
| --- | --- | --- | --- | --- | --- | --- | --- | --- | --- | --- | --- | --- |
| COc1cc(/C=N\OC[C@H]2C[C@@H]2[C@@H]2C[C@]2(C)CCC(O)c2cccs2)cc(OC)c1OC (stereo not given in full) | -9 | 1200 | 8800 | 980 | 15000 | 26 | -1 | 9900 | 39000 | – | – | – |
| C=CC[C@@H](CC/C(C)=C/C=C/CC/C=C\[C@@H]1CSC(C(C)(C)C)=N1)OC | 35 | – | – | – | – | 100 | 63 | – | – | – | – | – |
| C=CC[C@@H](CC[C@@]1(C)C[C@H]1[C@H]1C[C@@H]1CC/C=C\[C@@H]1CSC([C@@H]2C[C@@H]2C)=N1)OC | 9 | > 50000 | > 50000 | > 50000 | > 50000 | 0 | – | > 50000 | > 50000 | – | – | – |
| C=CC[C@@H](CC/C(C)=C/C=C/CC/C=C\c1coc(C(C)(C)C)n1)OC | 7 | – | > 50000 | – | – | – | 7 | – | > 50000 | – | – | – |
| C=CC[C@@H](CC/C(C)=C/C=C/CC/C=C\[C@@H]1COC(/C=C/c2ccccc2)=N1)OC | 9 | – | – | – | – | – | – | – | – | – | – | – |
| C=CC[C@@H](CC/C(C)=C/C=C/CC/C=C\[C@@H]1CSC([C@@H]2C[C@@H]2C)=N1)OC [CURACIN A] | – | – | – | 96 to 186 | – | 97.9 to 98 | – | – | – | 96.2 to 97.7 | 84.9 to 95 | – |
| C=CC[C@@H](CC/C(C)=C/C=C/CC/C=C\[C@@H]1COC(C(C)(C)C)=N1)OC | 14 | – | – | – | – | 0 | 80 | – | – | – | – | – |
| COc1ccc(/C=C\CC/C=C/C=C(\C)CCC(O)c2cc3ccccc3s2)c(OC)c1 (stereo not given) | – | > 50000 | > 50000 | > 50000 | – | – | – | – | – | < 26.4 | – | – |
| C=CC[C@@H](CC/C(C)=C/C=C/CC/C=C\c1csc(C(C)(C)C)n1)OC | 38 | – | – | – | – | 100 | 43 | – | – | – | – | – |
| COc1ccccc1C(O)CC/C(C)=C/C=C/CC/C=C\c1cc(OC)c(OC)c(OC)c1 (stereo not given) | – | 620 to 933 | – | 243 to 340 | 221 | > 100 | – | 314 to 330 | 268 | 73 | 5 | Activity [12]: Active |
| COc1cc(/C=N\OC/C=C/C=C(\C)CCC(O)c2cccs2)cc(OC)c1OC (stereo not given) | – | – | – | – | – | 100 | 57 | – | – | – | – | – |
| COc1ccc(OC)c(C(O)CC/C(C)=C/C=C/CC/C=C\c2cc(OC)c(OC)c(OC)c2)c1 (stereo not given) | – | – | – | – | 8730 | 3.5 | – | – | – | 20.3 | 0.7 | – |
| COc1cc(/C=C\CC/C=C/C=C(\C)CCC(O)c2ccco2)cc(OC)c1OC (stereo not given) | – | – | – | – | – | – | – | – | – | – | – | Activity [12]: Active |
| COc1cc(/C=C\CC/C=C/C=C(\C)CCC(O)c2cc3ccccc3s2)cc(OC)c1OC (stereo not given) | – | 620 to 875 | 1220 | 83 to 230 | 1280 | > 100 | – | 360 to 380 | 235 | – | 30.2 | Activity [13]: Active; Activity [14]: Active; Activity [15]: Active; Activity [16]: Active; Activity [12]: Active |
| COc1cc(/C=N\OC[C@@H]2C[C@H]2CCC(C)c2cccs2)cc(OC)c1OC (stereo not given in full) | -10 | > 50000 | > 50000 | > 50000 | > 50000 | – | 18 | > 50000 | > 50000 | – | – | – |
| COc1ccc(/C=C\CC/C=C/C=C(\C)CCC(O)c2cc(OC)ccc2OC)c(OC)c1 (stereo not given) | – | > 50000 | > 50000 | – | – | – | – | – | – | – | – | – |
| COc1ccc(/C=C\CC/C=C/C=C(\C)CCC(O)c2ccco2)c(OC)c1 (stereo not given) | – | > 50000 | > 50000 | – | – | – | – | – | – | – | – | – |
| COc1cc(/C=C\CC/C=C/C=C(\C)CCC(O)c2cc3ccccc3o2)cc(OC)c1OC (stereo not given) | – | 310 to 596 | 1120 | 86 to 120 | 204 | 74.6 | – | – | 199 | 68.7 | 12.5 | – |
| COc1cc(/C=C\CC/C=C/C=C(\C)CCC(O)c2cccs2)cc(OC)c1OC (stereo not given) | – | 366 to 380 | 1020 | 151 to 280 | 214 | > 100 | – | 280 to 311 | – | 59 | 9.9 | Activity [12]: Active |
| COc1ccc(/C=C\CC/C=C/C=C(\C)CCC(O)c2ccccc2OC)c(OC)c1 (stereo not given) | – | > 50000 | > 50000 | > 50000 | – | – | – | – | – | – | – | – |
